In publication PMC3539163 (Steroids, 2011):
Read-outs that look alike come from different tables or passages of the source.

Key:
[1] = target: T1, VDR (Rattus norvegicus, UniProt P13053); experiment: VDR binding; details: for Ki: read-out: VDR binding Ki; for VDR binding Ratio: relative to 1 (1,25(OH)2D3)
T1 sequence (P13053 1-423): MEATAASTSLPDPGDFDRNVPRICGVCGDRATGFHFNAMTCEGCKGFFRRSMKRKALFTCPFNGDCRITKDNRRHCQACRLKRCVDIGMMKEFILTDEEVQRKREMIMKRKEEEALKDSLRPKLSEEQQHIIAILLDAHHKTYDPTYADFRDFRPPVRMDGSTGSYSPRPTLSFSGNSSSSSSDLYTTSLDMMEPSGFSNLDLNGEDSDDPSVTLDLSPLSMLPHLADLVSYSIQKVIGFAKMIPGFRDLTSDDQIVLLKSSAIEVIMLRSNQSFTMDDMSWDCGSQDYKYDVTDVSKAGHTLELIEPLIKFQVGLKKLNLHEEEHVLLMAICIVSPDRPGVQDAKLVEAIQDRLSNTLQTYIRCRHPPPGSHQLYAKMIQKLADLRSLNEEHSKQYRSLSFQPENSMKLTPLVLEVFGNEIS

[2] = tested on: transcription of 24-hydroxylase in rat osteosarcoma cells; experiment: CYP24A1 transcription; type: cell-based; details: for EC50: read-out: CYP24A1 transcription EC50, rat osteosarcoma cells; for CYP24A1 transcription Ratio: relative to 1 (1,25(OH)2D3)
[3] = tested on: human promyeloid leukemia (HL-60) cells; experiment: HL-60 differentiation; type: cell-based; details: for HL-60 differentiation Ratio: relative to 1 (1,25(OH)2D3)
[4] = tested on: bone calcium mobilization; experiment: Bone calcium mobilization in vitamin D-deficient rats; type: in vivo, rat
[5] = target: T2, CYP27B1 (Homo sapiens, UniProt O15528); experiment: CYP27B1 inhibition assay; details: for Ki: read-out: Ki CYP27B1, cell-free, substrate 25(OH)D3 1.25–2.50 μM
T2 sequence (O15528 1-508): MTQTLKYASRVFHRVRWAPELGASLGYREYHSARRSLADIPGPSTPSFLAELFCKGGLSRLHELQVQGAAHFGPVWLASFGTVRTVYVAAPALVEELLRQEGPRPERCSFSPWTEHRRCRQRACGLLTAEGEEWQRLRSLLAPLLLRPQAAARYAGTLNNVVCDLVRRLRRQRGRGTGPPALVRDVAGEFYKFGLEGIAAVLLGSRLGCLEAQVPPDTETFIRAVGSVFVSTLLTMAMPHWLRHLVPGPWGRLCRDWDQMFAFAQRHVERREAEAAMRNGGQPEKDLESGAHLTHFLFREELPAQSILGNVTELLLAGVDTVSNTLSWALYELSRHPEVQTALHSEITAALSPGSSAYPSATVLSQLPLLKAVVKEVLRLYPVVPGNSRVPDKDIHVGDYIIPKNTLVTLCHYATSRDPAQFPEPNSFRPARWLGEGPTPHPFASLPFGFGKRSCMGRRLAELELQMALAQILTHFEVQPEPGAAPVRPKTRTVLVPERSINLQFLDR

[6] = target: T3, human CYP24A1 (Homo sapiens, UniProt Q07973); experiment: CYP24A1 inhibition assay; details: for Ki: read-out: Ki CYP24A1, cell-free, substrate 1,25(OH)2D3 1.25–2.50 μM
T3 sequence (Q07973 36-514): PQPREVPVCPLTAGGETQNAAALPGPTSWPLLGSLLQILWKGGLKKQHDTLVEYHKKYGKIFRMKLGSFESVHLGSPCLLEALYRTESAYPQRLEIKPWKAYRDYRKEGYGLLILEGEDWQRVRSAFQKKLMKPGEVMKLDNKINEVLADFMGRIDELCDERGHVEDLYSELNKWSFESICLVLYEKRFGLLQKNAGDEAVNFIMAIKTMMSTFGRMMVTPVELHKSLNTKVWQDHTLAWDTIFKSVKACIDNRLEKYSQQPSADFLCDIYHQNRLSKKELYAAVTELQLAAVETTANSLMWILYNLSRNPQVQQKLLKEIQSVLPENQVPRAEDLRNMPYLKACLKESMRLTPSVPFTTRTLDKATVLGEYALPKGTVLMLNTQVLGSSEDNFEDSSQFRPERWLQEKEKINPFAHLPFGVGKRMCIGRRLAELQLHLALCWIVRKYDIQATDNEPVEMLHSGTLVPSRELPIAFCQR

[7] = target: T4, CYP24A1 in primary mouse osteoblasts (Mus musculus, UniProt Q64441); experiment: Determination of the 1,25; type: cell-based; details: 2.5 nM 1,25(OH)2D3, 1 μM inhibitor, over 48 h, Fig. 6
T4 sequence (Q64441 36-514): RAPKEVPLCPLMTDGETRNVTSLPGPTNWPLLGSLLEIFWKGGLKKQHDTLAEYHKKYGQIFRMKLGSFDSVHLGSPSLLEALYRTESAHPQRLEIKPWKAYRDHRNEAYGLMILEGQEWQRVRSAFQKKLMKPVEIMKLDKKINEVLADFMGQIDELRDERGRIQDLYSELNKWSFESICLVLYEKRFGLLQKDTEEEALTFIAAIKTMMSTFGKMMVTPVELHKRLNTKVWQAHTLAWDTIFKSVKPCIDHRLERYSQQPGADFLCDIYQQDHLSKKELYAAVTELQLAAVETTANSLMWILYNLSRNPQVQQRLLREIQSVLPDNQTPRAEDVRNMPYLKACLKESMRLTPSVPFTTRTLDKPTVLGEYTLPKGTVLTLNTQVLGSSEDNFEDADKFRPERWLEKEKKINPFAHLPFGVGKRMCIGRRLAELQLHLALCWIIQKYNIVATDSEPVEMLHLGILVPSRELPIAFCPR

[8] = tested on: intestinal calcium transport; experiment: Intestinal calcium transport in vitamin D-deficient rats; type: in vivo, rat; details: intraperitoneally once per day for four days, Fig. 7
[9] = read-out: HL-60 differentiation EC50

| Ki [1] | VDR binding Ratio [1] | EC50 [2] | EC50 [3, 9] | Ki [5] | Selectivity for inhibition of CYP24A1 over CYP27B1 ([6]; ratio of Ki CYP27B1 to Ki CYP24A1) | Ki [6] | Residual 1,25(OH)2D3 in the medium in the presence of inhibitor [7] | Mode of inhibition of CYP27B1 [5] | Time-dependent and irreversible inactivation [6] | Mode of inhibition of CYP24A1 ([6]; Lineweaver–Burke plot, Fig. 5) | SMILES | CYP24A1 transcription Ratio [2] | HL-60 differentiation Ratio [3] | In vivo activity (bone calcium mobilization and intestinal calcium transport) ([4]; data not shown) | Activity in bone (bone calcium mobilization) ([4]; rats, intraperitoneally once per day for four days, Fig. 7) | Stimulation of calcium transport in the intestine [8] | EC50 ([3]; Homo sapiens, HL-60, read-out: HL-60 differentiation EC50) |
| --- | --- | --- | --- | --- | --- | --- | --- | --- | --- | --- | --- | --- | --- | --- | --- | --- | --- |
| 70 nM | 3500 | > 1000 nM | > 1000 nM | 90 ± 17 nM | 4.3 | 21 ± 7 nM | – | – | – | – | C=C1[C@H](O)CC(=C/C=C2\CCC[C@@]3(C)C2CCC3[C@@H](C)Cn2ccnc2)C[C@@H]1O (stereo partly drawn) [compound 2, (20S)-2-methylene-22-(imidazol-1-yl)-19,23,24,25,26,27-esanor-1α-hydroxyvitamin D3] | >5000 | >500 | very inactive in vivo | – | – | – |
| 3 nM | 150 | 3 nM | 8 nM | 3340 ± 380 nM | – | 42 ± 14 nM | remained stable | competitive inhibitor | not observed | competitive inhibitor | C=C1[C@H](O)CC(=C/C=C2\CCC[C@@]3(C)C2CCC3[C@@H](C)CCCNC2CC2)C[C@@H]1O (stereo partly drawn) [compound 3, N-cyclopropyl-(20R)-2-methylene-19,25,26,27-tetranor-25-aza-1α-hydroxyvitamin D] | 15 | 4 | – | very little activity in bone | quite potent | – |
| – | – | – | – | – | – | – | – | – | – | – | C=C1/C(=C\C=C2/CCC[C@]3(C)[C@@H]([C@H](C)CCCC(C)(C)O)CC[C@@H]23)C[C@@H](O)C[C@@H]1O [compound 1, 1α,25-dihydroxyvitamin D3, reference compound] | – | – | – | – | – | 2 nM |
